Values of other authors, collected in patent US11851709B2, “HER2 as a predictor of response to dual HER2 blockade in the absence of cytotoxic therapy” (FUNDACIÓ PRIVADA INSTITUT D'INVESTIGACIÓ ONCOLÓGICA DE VALL …, priority 2016, dated 2023).

Experiments:
HER2+ breast cancer = conditions: at 4.5-years; added to adjuvant trastuzumab and chemotherapy; statistically non-significant
[1] = tested on: node-positive breast cancer; conditions: interaction between HER2 positivity and addition of paclitaxel; P=0.01

Structure (SMILES)	absolute benefit in DFS (HER2+ breast cancer) [%]	hazard ratio for recurrence [1]
CS(=O)(=O)CCNCc1ccc(-c2ccc3ncnc(Nc4ccc(OCc5cccc(F)c5)c(Cl)c4)c3c2)o1 [lapatinib]	~2	
CC(=O)O[C@H]1C(=O)[C@@]2(C)[C@H]([C@H](OC(=O)c3ccccc3)[C@]3(O)C[C@H](OC(=O)[C@H](O)[C@@H](NC(=O)c4ccccc4)c4ccccc4)C(C)=C1C3(C)C)[C@]1(OC(C)=O)CO[C@@H]1C[C@@H]2O [paclitaxel]		0.59
